Data on 13 molecules can be found in US5010090A, “N-(butenyl substituted) azaheterocyclic carboxylic acids” (Novo Nordisk A/S., priority 1985, dated 1991).

For assay [1], the system named is GABA uptake. The assay can be described thus: GABA-uptake inhibition in vitro, essentially as described by Fjalland, 3H-GABA as substrate. Type of assay: biochemical. The settings on record: two separate experiments, 3-5 concentrations, 3H-GABA substrate (25 mM [sic]). As to the method:
GABA-uptake inhibition was measured essentially as described by Fjalland (Acta Pharmacol. et. Toxicol. (1978), 42, 73-76) using 25 mM of 3H-GABA as a substrate. The results obtained appears from Table 4, the obtained values being from two separate experiments using 3-5 different concentrations of test compound.

In assay [2] the test system is DMCM induced clonic convulsions. The assay can be described thus: Inhibition of DMCM induced convulsions in vivo. Particulars: Mus musculus, ip, 0.5 h; 50% inhibition of DMCM induced clonic convulsions; i.p. 30 min before 15 mg/kg DMCM i.p.; female NMRI mice. As to the method: Inhibition of DMCM induced convulsions was measured on female NMRI mice (20±2 g).
The test compounds were injected intraperitoneally 30 min. before an intraperitoneal injection of 15 mg/kg of DMCM.

For assay [3], the system named is GABA uptake. The settings on record: literature; cited from earlier work.

The IC50 is the concentration that inhibits the measured activity by half. A lower IC50 goes with inhibition by little substance. Turning to `Cc1ccsc1C(=CCCN1CCCC(C(=O)O)C1)c1cccs1` (stereo not shown) [Compound 1, N-(4-(3-Methylthien-2-yl)-4-(thien-2-yl)but-3-enyl)nipecotic acid], the IC50 with GABA uptake [1] was 92 nM. The same measure, in the same setting: the result for `Cn1cccc1C(=CCCN1CCCC(C(=O)O)C1)c1cccn1C` (stereo not shown) [Compound 2, N-(4,4-Bis(N-methylpyrrol-2-yl)but-3-enyl)nipecotic acid] reads 52 nM. Still for that read-out and setting: the result for `Cc1ccsc1C(=CCCN1CCC=C(C(=O)O)C1)c1cccs1` [Compound 3, N-(4-(3-Methylthien-2yl)-4-(thien-2-yl)but-3-enyl)guvacine] reads 134 nM. In the case of `Cc1ccsc1C(=CCCN1CCC(CC(=O)O)C1)c1cccs1` (stereo not shown) [Compound 4], the IC50 in the assay with GABA uptake [1] is 72 nM.

In the assay with GABA uptake [1], `Cc1ccsc1C(=CCCN1CCCC(C(=O)O)C1)c1sccc1C` (stereo not shown) [Compound 5, N-(4,4-Bis(3-methylthien-2-yl)but-3-enyl)nipecotic acid] returned an IC50 of 87 nM. The ED50 is the dose that gives a 50% effect, or the effect in half of the subjects. Higher therefore signals a need for a large dose. With `Cc1ccsc1C(=CCCN1CCC[C@@H](C(=O)O)C1)c1sccc1C` [Compound 6, R-N-(4,4-bis(3-methylthien-2-yl)but-3-enyl)-nipecotic acid], the ED50 in assay [2] turned out to be 1.2 mg/kg. The same molecule returned an IC50 with GABA uptake [1] of 74 nM. Turning to `Cc1ccsc1C(=CCCN1CCC(CC(=O)O)C1)c1sccc1C` (stereo not drawn) [Compound 7, N-(4,4-Bis(3-methylthien-2-yl)but-3-enyl)-β-homoproline], in the assay on GABA uptake [1], the IC50 is 69 nM.

`O=C(O)C1CCCN(CCC=C(c2sccc2Br)c2sccc2Br)C1` (stereo not shown) [Compound 8, N-(4,4-Bis(3-bromothien-2-yl)but-3-enyl)nipecotic acid] gave an IC50 in the assay on GABA uptake [1] of 96 nM.

On to `O=C(O)C1CCCN(CCC=C(c2ccccc2)c2cccs2)C1` (stereo not shown) [Compound 9, N-(4-phenyl-4-(2-thienyl)-3-butenyl)nipecotic acid, reference compound], for which the “inhibition of GABA uptake” value in the assay on GABA uptake [3] was “active inhibitors of GABA uptake”. The same molecule returned an IC50 in the assay on GABA uptake [1] of 465 nM.

For `O=C(O)C1CCCN(CCC=C(c2ccccc2)c2ccccc2)C1` (stereo not shown) [Compound 10, N-(4,4-diphenyl-3-butenyl)nipecotic acid, reference compound], the “inhibition of GABA uptake” value in the assay on GABA uptake [3] is “active inhibitors of GABA uptake”. In addition, the IC50 in the assay on GABA uptake [1] turned out to be 353 nM. In turn, `CCOC(=O)[C@@H]1CCCN(CCC=C(c2sccc2C)c2sccc2C)C1` [Example 23, R-N-(4,4-bis(3-methylthien-2-yl)but-3-enyl)-nipecotic acid ethyl ester] returned an ED50 in assay [2] of 2.5 mg/kg. Turning to `O=C(O)C1=CCCN(CCC=C(c2ccccc2)c2ccccc2)C1` [SK&F 100330A, N-(4,4-diphenyl-3-butenyl)guvacine], the “inhibition of GABA uptake” value in the assay on GABA uptake [3] was “active inhibitors of GABA uptake”.

For `O=C(O)CC1CCN(CCC=C(c2ccccc2)c2ccccc2)C1` (stereo not drawn) [SK&F 100561, N-(4,4-diphenyl-3-butenyl)-β-homoproline], the “inhibition of GABA uptake” value in the assay with GABA uptake [3] is “active inhibitors of GABA uptake”.
